The target of data set [1] is T1, catalytic domain of human stromelysine (Homo sapiens, UniProt P08254).
T1 construct: enzymatic activity of the catalytic domains of human stomelysine and of neutrophil collagenase; made in house
Nature of the data set: Enzyme inhibition, catalytic domain of human stromelysine (fluorogenic substrate). Format: biochemical. The note with it: read-out: Stromelysine IC 50. As for the experimental part:
(§1) Preparation and determination of the enzymatic activity of the catalytic domains of human stomelysine and of neutrophil collagenase.
(§2) The two enzymes were prepared according to Ye et al., (Biochemistry 31 (1992) 11231-5). To measure the enzyme activity or enzyme inhibitor action, 70 μl of buffer solution and 10 μl of enzyme solution are incubated for 15 minutes with 10 μl of a 10% strength (v/v) aqueous dimethyl sulfoxide solution, which optionally contains the enzyme inhibitor. After addition of 10 μl of a 10% strength (v/v) aqueous dimethyl sulfoxide solution which contains 1 mmol/l of the substrate, the enzyme reaction is monitored by fluorescence spectroscopy (328 nm (ex)/393 nm(em)). The enzyme activity is shown as extinction increase/minute. […] The buffer solution contains 0.05% of Brij (Sigma, Deisenhofen, Germany) and also 0.1 mol/l of tris/HCl, 0.1 mol/l of NaCl, 0.01 mol/l of CaCl2 (pH=7.5) for the determination of the hydroxamic acids up to and including Example 33, or, for the determination of the carboxylic acids from Example 34, 0.1 mol/l of piperazine-N,N′-bis[2-ethanesulfonic acid] pH=6.5.
(§3) The enzyme solution contains 5 μg/ml of one of the enzyme domains prepared according to Ye et al. The substrate solution contains 1 mmol/l of the fluorogenic substrate (7-methoxycoumarin-4-yl)acetyl-Pro-Leu-Gly-Leu-3-(2′,4′-dinitrophenyl)-L-2,3-diaminopropionyl-Ala-Arg-NH2 (Bachem, Heidelberg, Germany).

Data set [2] addresses T2, catalytic domain of neutrophil collagenase (Homo sapiens, UniProt P22894).
T2 construct: enzymatic activity of the catalytic domains of human stomelysine and of neutrophil collagenase; made in house
Nature of the data set: Enzyme inhibition, catalytic domain of neutrophil collagenase (fluorogenic substrate). The note with it: read-out: Neutrophil collagenase IC 50. In kind it is biochemical. As for the experimental part: as §1, §2, §3

[3] abbreviates: hydroxamic acids up to and including Example 33, tris/HCl buffer pH=7.5.
[4] abbreviates: carboxylic acids from Example 34, piperazine-N,N'-bis[2-ethanesulfonic acid] buffer pH=6.5.

The melting point is the temperature, or range, at which the solid turns liquid.

Like-named read-outs stand apart in the source and are kept apart here.

T1 sequence (P08254 100-272 limits assumed): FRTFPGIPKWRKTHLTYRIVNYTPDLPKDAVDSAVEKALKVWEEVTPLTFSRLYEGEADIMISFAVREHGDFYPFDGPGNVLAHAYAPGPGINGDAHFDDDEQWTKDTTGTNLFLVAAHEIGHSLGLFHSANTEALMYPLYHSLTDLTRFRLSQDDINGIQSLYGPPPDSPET
T2 sequence (P22894 100-262 limits assumed): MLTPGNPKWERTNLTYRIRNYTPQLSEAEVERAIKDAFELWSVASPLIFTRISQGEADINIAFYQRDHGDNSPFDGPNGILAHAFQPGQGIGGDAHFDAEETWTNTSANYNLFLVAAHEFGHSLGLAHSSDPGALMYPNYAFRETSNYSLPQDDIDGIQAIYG

For the compound `COc1ccc(S(=O)(=O)Oc2ccc3c(c2)CN(S(=O)(=O)c2ccc(OC)cc2)[C@@H](C(=O)NO)C3)cc1` [Example 22], the results for the IC50 in data set [1] (setting [3]) and in data set [2] (setting [3]) were 30 nM and 8 nM, respectively.
In the case of `CC(=O)Nc1ccc(S(=O)(=O)N2Cc3ccccc3CC2C(=O)NO)cc1` (centres unmarked) [Example 4], the IC50 in data set [1] (setting [3]) is 700 nM; in data set [2] (setting [3]), 100 nM.
For the compound `O=C(NO)C1Cc2ccccc2CN1S(=O)(=O)c1ccccc1` (centres unmarked) [Example 1], the IC50 in data set [1] (setting [3]) came to 300 nM.
For the compound `CCOC(=O)Nc1cccc(S(=O)(=O)N2Cc3ccccc3CC2C(=O)NO)c1` (centres unmarked) [Example 5], the IC50 in data set [1] (setting [3]) was determined as 6000 nM.
With `COc1ccc(S(=O)(=O)N2Cc3cc([N+](=O)[O-])ccc3CC2C(=O)NO)cc1` (centres unmarked) [Example 23], the IC50 in data set [1] (setting [3]) was found to be 80 nM; in data set [2] (setting [3]), 8 nM.
On to `O=C(NO)[C@H]1Cc2ccccc2CN1S(=O)(=O)c1ccc(-c2ccc(Cl)cc2)cc1` [Example 3], for which the IC50 in data set [1] (setting [3]) was determined as 30 nM; in data set [2] (setting [3]), 2 nM.
`O=C(O)[C@H]1Cc2ccc([N+](=O)[O-])cc2CN1S(=O)(=O)c1ccc(-c2ccc(Cl)cc2)cc1` [Example 50]: the IC50 in data set [1] (setting [4]) worked out at 600 nM; in data set [2] (setting [4]), 30 nM.
`O=C(NO)[C@H]1Cc2c([nH]c3ccccc23)CN1S(=O)(=O)c1ccc(Oc2ccccc2)cc1` [Example 32, R-2-(4-phenoxybenzenesulfonyl)-1,2,3,4-tetrahydro-9H-pyrido(3,4-b)-indole-3-hydroxamic acid] came in with a melting point of 110 to 111 °C. In addition, the IC50 in data set [1] (setting [3]) worked out at 60 nM.
As for `O=C(NO)C1Cc2ccccc2CN1S(=O)(=O)c1ccc(C(O)c2ccccc2)cc1` (centres unmarked) [Example 19], the IC50 turned out to be 2000 nM in data set [1] (setting [3]) and 300 nM in data set [2] (setting [3]).
Take `O=C(O)[C@H]1Cc2cc([N+](=O)[O-])ccc2CN1S(=O)(=O)c1ccc(-c2ccc(F)cc2)cc1` [Example 53]: the results for the IC50 in data set [1] (setting [4]) and in data set [2] (setting [4]) were 500 nM and 20 nM, respectively.
Consider `O=C(c1ccccc1)c1ccc(S(=O)(=O)N2Cc3ccccc3C[C@@H]2C(=O)O)cc1` [Example 45], for which the IC50 in data set [1] (setting [4]) came to 3000 nM; in data set [2] (setting [4]), 300 nM.
As for `O=C(O)[C@H]1Cc2ccc([N+](=O)[O-])cc2CN1S(=O)(=O)c1ccc(-c2ccc(F)cc2)cc1` [Example 52], the IC50 in data set [1] (setting [4]) came out at 1000 nM; in data set [2] (setting [4]) it was 40 nM.
Compound `CN(C)c1ccc(-c2ccc(S(=O)(=O)N3Cc4ccccc4C[C@@H]3C(=O)O)cc2)cc1.Cl` [Example 39] registered a melting point of 122 to 135 °C. For the same compound, the IC50 in data set [1] (setting [4]) was 100 nM. In data set [2] (setting [4]), the IC50 amounted to 1 nM.
Turning to `O=C(O)[C@H]1Cc2c([nH]c3ccccc23)CN1S(=O)(=O)c1ccc(Oc2ccccc2)cc1` [Example 57], the melting point came out at 115 °C. Moreover, the IC50 in data set [1] (setting [4]) came to 2000 nM. The IC50 in data set [2] (setting [4]) stood at 100 nM.
As to `COc1ccc(CC(=O)Nc2cccc(S(=O)(=O)N3Cc4ccccc4CC3C(=O)NO)c2)cc1` (centres unmarked) [Example 8], the IC50 came to 3000 nM in data set [1] (setting [3]) and 200 nM in data set [2] (setting [3]).
For the compound `CCOC(=O)Nc1ccc(S(=O)(=O)N2Cc3ccccc3CC2C(=O)NO)cc1` (centres unmarked) [Example 6], the IC50 amounted to 500 nM in data set [1] (setting [3]) and 30 nM in data set [2] (setting [3]).
`O=C(O)[C@H]1Cc2cc3c(cc2CN1S(=O)(=O)c1ccc(Oc2ccccc2)cc1)OCO3` [Example 54]: the melting point was 226 to 228 °C.
`O=C(O)[C@H]1Cc2ccccc2CN1S(=O)(=O)c1ccc(Oc2ccccc2)cc1` [41 (13b), R-2-(4-phenoxybenzenesulfonyl)-1,2,3,4-tetrahydroisoquinoline-3-carboxylic acid] registered a melting point of 147 °C. In addition, the IC50 in data set [1] (setting [4]) was 200 nM. Further, in data set [2] (setting [4]), the IC50 was 9 nM.
Take `COc1ccc(S(=O)(=O)N2c3ccccc3CC2C(=O)NO)cc1` (centres unmarked) [Example 28, 1-(4-Methoxybenzenesulfonyl)indoline-2-hydroxamic acid]: the melting point amounted to 142 °C. The IC50 in data set [1] (setting [3]) turned out to be 2000 nM. Moreover, the IC50 in data set [2] (setting [3]) was 700 nM.
As to `COc1ccc(S(=O)(=O)N2Cc3c(cc(OC)c(OC)c3OC)CC2C(=O)NO)cc1` (centres unmarked) [Example 25, 2-(4-Methoxybenzenesulfonyl)-6,7,8-trimethoxy-1,2,3,4-tetrahydroisoquinoline-3-hydroxamic acid], the IC50 in data set [1] (setting [3]) was 400 nM; in data set [2] (setting [3]) it was 300 nM.
For the compound `O=C(NO)[C@H]1Cc2ccccc2CN1S(=O)(=O)C1=CC2=CC=CCC2C=C1` (some centres unmarked) [Example 11], the figures for the IC50 in data set [1] (setting [3]) and in data set [2] (setting [3]) were 400 nM and 70 nM, respectively.
Consider `CN(C)c1cccc2c(S(=O)(=O)N3Cc4ccccc4C[C@@H]3C(=O)NO)cccc12` [Example 12], for which the IC50 is 400 nM in data set [1] (setting [3]) and 200 nM in data set [2] (setting [3]).
On to `O=C(O)[C@H]1Cc2ccccc2CN1S(=O)(=O)c1ccc2oc3ccccc3c2c1` [Example 46], for which the melting point fell in the range of 218 to 219 °C. The IC50 in data set [1] (setting [4]) is 3000 nM. Moreover, in data set [2] (setting [4]), the IC50 came out at 300 nM.
Consider `O=C(O)[C@H]1Cc2ccccc2CN1S(=O)(=O)c1ccc(Sc2ccccc2)cc1` [Example 43], for which the IC50 was determined as 20000 nM in data set [1] (setting [4]) and 200 nM in data set [2] (setting [4]).
With `O=C(O)[C@H]1Cc2ccccc2CN1S(=O)(=O)c1ccc(Oc2ccc(Cl)cc2)cc1` [Example 42, R-2-[4-(4-chlorophenoxy)benzenesulfonyl]-1,2,3,4-tetrahydroisoquinoline-3-carboxylic acid], the melting point lay in the range of 167 to 168 °C. In addition, in data set [1] (setting [4]), the IC50 was found to be 500 nM. Besides, the IC50 in data set [2] (setting [4]) is 20 nM.
In the case of `O=C(O)[C@H]1Cc2ccccc2CN1S(=O)(=O)c1ccc(-c2ccccc2)cc1` [Example 34], the melting point was determined as 205 °C. For the same compound, the IC50 in data set [1] (setting [4]) came to 500 nM. Also, in data set [2] (setting [4]), the IC50 was 10 nM.
Taken in the same sequence, the figures for `O=C(O)[C@H]1Cc2ccccc2CN1S(=O)(=O)c1ccc(-c2ccc(Cl)cc2)cc1` [Example 35] were 207 to 209 °C, 100 nM and 5 nM.
Take `O=C(O)[C@H]1Cc2ccccc2CN1S(=O)(=O)c1ccc(OCc2ccc(F)cc2)cc1` [Example 44]: the figures for the IC50 in data set [1] (setting [4]) and in data set [2] (setting [4]) were 200 nM and 30 nM, respectively.
The like results for `O=C(O)[C@H]1Cc2cc([N+](=O)[O-])ccc2CN1S(=O)(=O)c1ccc(-c2ccc(Cl)cc2)cc1` [Example 51] were, in that order, 500 nM and 20 nM.
`COc1ccc(S(=O)(=O)N2Cc3[nH]c4ccccc4c3C[C@@H]2C(=O)NO)cc1` [Example 31, R-2-(4-methoxybenzenesulfonyl)-1,2,3,4-tetrahydro-9H-pyrido-(3,4-b)-indole-3-hydroxamic acid]: the IC50 in data set [1] (setting [3]) came out at 20 nM; in data set [2] (setting [3]), 3 nM.
As to `O=C(NO)[C@H]1Cc2ccccc2CN1S(=O)(=O)c1ccc2oc3ccccc3c2c1` [Example 15], the IC50 in data set [1] (setting [3]) stood at 100 nM; in data set [2] (setting [3]), 10 nM.
In the case of `O=C(O)[C@H]1Cc2ccccc2CN1S(=O)(=O)c1ccc(-c2nc3ccccc3o2)cc1` [Example 47], the melting point is 211 to 213 °C.
Turning to `COc1ccc(S(=O)(=O)N2CCc3cc4c(cc3C2C(=O)NO)CCC4)cc1` (centres unmarked) [Example 27], the IC50 in data set [1] (setting [3]) came out at 30 nM; in data set [2] (setting [3]) it was 4 nM.
The like results for `O=C(NO)C1Cc2ccccc2CN1S(=O)(=O)N1CCOCC1` (centres unmarked) [Example 26, 2-(Morpholinosulfonyl)-1,2,3,4-tetrahydroisoquinoline-3-hydroxamic acid] were, in that order, 6000 nM and 300 nM.
`O=C(O)[C@@H]1Cc2ccccc2CN1S(=O)(=O)c1ccc(-c2ccc(Cl)cc2)cc1` [Example 36]: in data set [2] (setting [4]), the IC50 was 3000 nM.
With `O=C(NO)C1Cc2ccccc2CN1S(=O)(=O)CCc1ccccc1` (centres unmarked) [Example 17], the IC50 in data set [1] (setting [3]) worked out at 100 nM.
Take `O=C(NO)[C@H]1Cc2c([nH]c3ccccc23)CN1S(=O)(=O)c1ccc(N2CCOCC2)cc1` [Example 33, R-2-(4-morpholinobenzenesulfonyl)-1,2,3,4-tetrahydro-9H-pyrido(3,4-b)-indole-3-hydroxamic acid]: the melting point is 125 °C (dec.). In addition, the IC50 in data set [1] (setting [3]) stood at 300 nM. Moreover, in data set [2] (setting [3]), the IC50 was 70 nM.
`COc1ccc(S(=O)(=O)N2Cc3cc4c(cc3CC2C(=O)NO)OCO4)cc1` (centres unmarked) [Example 24, 2-(4-Methoxybenzenesulfonyl)-6,7-methylenedioxy-1,2,3,4-tetrahydroisoquinoline-3-hydroxamic acid]: the melting point came out at 166 °C. The IC50 in data set [1] (setting [3]) was 60 nM. For the same compound, in data set [2] (setting [3]), the IC50 was determined as 20 nM.

These data come from patent publication US6815440B2, “Cyclic and heterocyclic N-substituted α-iminohydroxamic and -carboxylic acids” (Aventis Pharma Deutschland GmbH, priority 1995, dated 2004).
